The results in this text go back to patent US6121330A, “5-Hydroxyalkyl substituted phenyls and their use in medicaments for the treatment of arteriosclerosis and hyperlipoproteinaemia” (Bayer Aktiengesellschaft, priority 1997, dated 2000).

The target in assay [1] is T1, cholesterol ester transfer protein (CETP) (Homo sapiens, UniProt P11597).
T1 construct: CETP is obtained from human plasma in partially purified form by differential centrifugation and column chromatography; from tissue; host or cells: human plasma
T1 sequence (P11597 18-493): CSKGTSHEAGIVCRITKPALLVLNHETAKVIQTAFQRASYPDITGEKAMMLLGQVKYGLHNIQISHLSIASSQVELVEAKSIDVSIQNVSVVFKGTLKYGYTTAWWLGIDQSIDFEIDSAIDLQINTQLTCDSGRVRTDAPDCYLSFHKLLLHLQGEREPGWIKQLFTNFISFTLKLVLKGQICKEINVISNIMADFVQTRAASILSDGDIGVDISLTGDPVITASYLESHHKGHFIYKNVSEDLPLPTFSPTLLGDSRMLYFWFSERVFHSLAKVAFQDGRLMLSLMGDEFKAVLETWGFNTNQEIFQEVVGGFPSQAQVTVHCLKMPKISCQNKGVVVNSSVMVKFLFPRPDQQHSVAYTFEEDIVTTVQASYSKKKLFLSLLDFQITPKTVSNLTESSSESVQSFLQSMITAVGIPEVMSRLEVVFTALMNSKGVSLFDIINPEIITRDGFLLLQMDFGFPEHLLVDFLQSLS
The assay is described as follows: CETP inhibition testing (transfer of 3H-cholesterol ester from human HD lipoproteins to biotinylated LD lipoproteins). Format: biochemical. The conditions noted are these: CETP partially purified from human plasma; 3H-cholesterol ester transfer HDL to biotin-LDL, 37° C., 18 h. The method, then:
CETP is obtained from human plasma in partially purified form by differential centrifugation and column chromatography and used for the test. To this end, human plasma is adjusted to a density of 1.21 g per ml using NaBr and centrifuged at 4° C. for 18 h at 50,000 rpm. The bottom fraction (d>1.21 g/ml) is applied to a Sephadex®phenyl-sepharose 4B (Pharmacia) column, washed with 0.15 M NaCl/0.001 M trisHCl pH 7.4 and then eluted with distilled water. The CETP-active fractions are pooled, dialyzed against 50 mM Na acetate pH 4.5 and applied to a CM-Sepharose® (Pharmacia) column. The column is then eluted using a linear gradient (0-1 M NaCl). The pooled CETP fractions are dialyzed against 10 mM tris HCl pH 7.4 and then further purified by chromatography on a Mono Q® column (Pharmacia).
Obtainment of Radiolabelled HDL
50 ml of fresh human EDTA plasma is adjusted to a density of 1.12 using NaBr and centrifuged at 50,000 rpm for 18 h at 4° C. in a Ty 65 rotor. The upper phase is used to obtain cold LDL. The lower phase is dialyzed against 3×4 l of PDB buffer (10 mM tris/HCl pH 7.4, […], 1 mM EDTA, 0.02% NaN3). 20 μl of 3H-cholesterol (Dupont NET-725; 1 μC/μl dissolved in ethanol!) are then added per 10 ml of retentate volume and the mixture is incubated under N2 at 37° C. for 72 h. […]
To test the CETP activity, the transfer of ^3 H-cholesterol ester from human HD lipoproteins to biotinylated LD lipoproteins is measured.
The reaction is ended by addition of streptavidin-SPA® beads (Amersham) and the transferred radioactivity is determined directly in a liquid scintillation counter.
In the test mixture, 10 μl of HDL-^3 H-cholesterol ester (~50,000 cpm) are incubated at 37° C. for 18 h with 10 μl of biotin-LDL (Amersham) in 50 mM Hepes/0.15 M NaCl/0.1% bovine serum albumin/0.05% NaN3 pH 7.4 with 10 μl of CETP (1 mg/ml) and 3 μl of solution of the substance to be tested dissolved (in 10% DMSO/1% RSA). 200 μl of the SPA-streptavidin bead solution (TRKQ 7005) are then added, the mixture is incubated further for 1 h with shaking and then measured in the scintillation counter. […]

For the next assay, the system named is HDL cholesterol. The assay is described as follows: HDL rise in in vivo experiments (oral administration). The arrangement: species or system Syrian golden hamster. Particulars: oral (stomach tube), 2 × 30 mg/kg/d. How it is done: In Vivo Activity of the Compounds According to the Invention
In experiments to determine the oral action on lipoproteins and triglycerides, test substance dissolved in DMSO and 0.5% Tylose suspended by means of a stomach tube are administered orally to Syrian golder hamsters from in-house breeding. To determine the CETP activity, blood (about 250 μl) is taken by retroorbital puncture before the start of the experiment. The test substances are then administered orally by means of a stomach tube. The control animals receive identical volumes of solvent without test substance. […]
Clotting is ended by incubation at 4° C. overnight, then centrifugation at 6000×g is carried out for 10 minutes. In the serum thus obtained, the content of cholesterol and triglycerides is determined with the aid of modified commercially available enzyme tests (cholesterol enzymatic 14366 Merck, triglycerides 14364 Merck). […]
100 μl of serum dilution are mixed with 100 μl of […] in 96-hole plates and incubated at room temperature for 10 minutes. The optical density is then determined at a wavelength of 492 nm using an automatic plate-reading apparatus. The triglyceride or cholesterol concentration contained in the samples is determined with the aid of a standard curve measured in parallel. […]

Broadly, the IC50 is the concentration at which inhibition is half-maximal. The low end stands for greater potency, the high end for weaker potency. `OCc1c(-c2ccc(F)cc2)cc(C2CCCC2)c(C(F)c2ccc(C(F)(F)F)cc2)c1-c1ccc(F)cc1` (stereo not shown) [Example 1] showed an IC50 in assay [1] of 90 nM.
Consider `CC(C)c1cc(-c2ccc(F)cc2)c(CO)c(-c2ccc(F)cc2)c1C(F)c1ccc(C(F)(F)F)cc1` (stereo not shown) [Example 3], for which the “% HDL rise” value with HDL cholesterol stood at 21%. This compound also gave an IC50 in assay [1] of 100 nM.
Compound `CC(C)c1cc(-c2ccc(F)cc2)c(CO)c(-c2ccc(F)cc2)c1C(=O)c1ccc(C(F)(F)F)cc1` [Example 4] showed a half-inhibitory concentration (IC50) in assay [1] of 4000 nM.
